Laboratory results: PMC11206759, “Synthesis, Docking, and DFT Studies on Novel Schiff Base Sulfonamide Analogues as Selective COX-1 Inhibitors with Anti-Platelet Aggregation Activity” (Pharmaceuticals, 2024)
Read-outs that look alike come from different tables or passages of the source. Each block holds one compound with its values, some of them ahead of it.

Key:
[1] = tested on: platelet aggregation induced by ADP; test: Anti-platelet aggregation assay, ADP-induced; format: cell-based; conditions: for IC50 / ADP Inhibition Rate (%) ± SD: platelet aggregation induced by 10 μM ADP; for IC50: 4 working concentrations; for ADP Inhibition Rate (%) ± SD: mean ± SD of three values
Protocol: (§1) Furthermore, the target compounds 10–13 were capable of inhibiting the platelet aggregation induced by 10 μM ADP and 0.33 U/mL collagen.
(§2) The anti-platelet aggregation assays were performed according to the method reported by XIE et al. (Supplementary Materials).

[2] = tested on: platelet aggregation induced by collagen; test: Anti-platelet aggregation assay, collagen-induced; format: cell-based; conditions: for IC50 / Collagen Inhibition Rate (%) ± SD: platelet aggregation induced by 0.33 U/mL collagen; for IC50: 4 working concentrations; for Collagen Inhibition Rate (%) ± SD: mean ± SD of three values
Protocol: as §1, §2

human recombinant COX-1 = test: Cyclooxygenase inhibition assay (EIA kit), COX-1; format: biochemical; conditions: COX-1 over COX-2
human recombinant COX-2 = molecular target: T1, human recombinant COX-2 (Homo sapiens, UniProt P35354); test: Cyclooxygenase inhibition assay (EIA kit), COX-2; format: biochemical; conditions: human recombinant COX-2, EIA kit
T1 construct: purchased Cayman Chemical 560131
T1 sequence (P35354 18-604): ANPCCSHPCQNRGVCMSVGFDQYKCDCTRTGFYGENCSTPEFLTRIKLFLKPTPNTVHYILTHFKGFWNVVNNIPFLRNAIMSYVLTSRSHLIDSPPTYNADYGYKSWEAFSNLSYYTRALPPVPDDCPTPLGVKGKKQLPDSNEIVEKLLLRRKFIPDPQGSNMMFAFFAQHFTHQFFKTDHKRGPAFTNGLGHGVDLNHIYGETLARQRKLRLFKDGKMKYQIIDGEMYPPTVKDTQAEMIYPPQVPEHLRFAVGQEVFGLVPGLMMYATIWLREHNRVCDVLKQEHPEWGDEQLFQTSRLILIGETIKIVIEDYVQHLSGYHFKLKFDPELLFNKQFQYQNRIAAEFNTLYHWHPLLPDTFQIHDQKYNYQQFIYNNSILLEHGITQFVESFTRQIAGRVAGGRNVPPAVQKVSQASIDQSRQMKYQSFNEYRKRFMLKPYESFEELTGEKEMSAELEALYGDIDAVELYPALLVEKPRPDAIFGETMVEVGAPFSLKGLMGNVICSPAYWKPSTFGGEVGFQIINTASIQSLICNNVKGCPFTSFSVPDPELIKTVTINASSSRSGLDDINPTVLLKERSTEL

COX-1 = conditions: cited from earlier work; for selectivity index: COX-1 selectivity
COX-2 = conditions: cited from earlier work
[3] = previous examples of Figure 1, read-out: IC50 COX-1

IC50 [1]: 490 nM | IC50 [2]: 510 nM
Compound: CC(=O)Oc1ccccc1C(=O)O [Aspirin]
ADP Inhibition Rate (%) ± SD [1]: 92.36 ± 1.5% | Collagen Inhibition Rate (%) ± SD [2]: 64.3 ± 1.38%

IC50 [1]: 370 nM | COX1 Selectivity Index (human recombinant COX-1): 5.86 | IC50 (human recombinant COX-2): 11.3 µM | IC50 [2]: 620 nM
Compound: O=S(=O)(Nc1ncccn1)c1ccc(/N=C/c2ccco2)cc1 [Compound 10, (E)-4-(Furan-2-ylmethyleneamino)-N-(pyrimidin-2-yl)benzenesulfonamide]
ADP Inhibition Rate (%) ± SD [1]: 78.36 ± 1.36% | Collagen Inhibition Rate (%) ± SD [2]: 89.36 ± 1.23%

IC50 [1]: 250 nM | COX1 Selectivity Index (human recombinant COX-1): 3.16 | IC50 (human recombinant COX-2): 15.2 µM | IC50 [2]: 1030 nM
Compound: O=S(=O)(Nc1ncccn1)c1ccc(/N=C/c2ccccc2O)cc1 [Compound 11, (E)-4-(2-Hydroxybenzylideneamino)-N-(pyrimidin-2-yl)benzenesulfonamide]
ADP Inhibition Rate (%) ± SD [1]: 84.36 ± 1.64% | Collagen Inhibition Rate (%) ± SD [2]: 76.35 ± 1.34%

IC50 [1]: 110 nM | COX1 Selectivity Index (human recombinant COX-1): 18.69 | IC50 (human recombinant COX-2): 13.3 µM | IC50 [2]: 120 nM
Compound: O=S(=O)(Nc1cnc2ccccc2n1)c1ccc(/N=C/c2ccco2)cc1 [Compound 12, (E)-4-(Furan-2-ylmethyleneamino)-N-(quinoxalin-2-yl)benzenesulfonamide]
reactivity compared to aspirin, ADP ([1]; fold versus aspirin): 4.45 folds | ADP Inhibition Rate (%) ± SD [1]: 98.1 ± 1.68% | activity compared to aspirin, collagen ([2]; fold versus aspirin): 4.25 folds | Collagen Inhibition Rate (%) ± SD [2]: 95.9 ± 1.39%

COX1 Selectivity Index (human recombinant COX-1): 2.87 | IC50 (human recombinant COX-2): 9.26 µM
Compound: O=S(=O)(Nc1cnc2ccccc2n1)c1ccc(/N=C/c2ccccc2O)cc1 [Compound 13, (E)-4-(2-Hydroxybenzylideneamino)-N-(quinoxalin-2-yl)benzenesulfonamide]
ADP Inhibition Rate (%) ± SD [1]: 46.32 ± 1.32% | Collagen Inhibition Rate (%) ± SD [2]: 45.36 ± 1.56%

Compound: Oc1ccc(/C=C/c2cc(O)cc(O)c2)cc1 [Compound II]
selectivity index (COX-1): around 200 folds | IC50 (COX-1; read-out: IC50 COX-1): 15 µM

Compound: Nc1ccc(S(=O)(=O)Nc2ccc(Cl)cc2)cc1 [Compound I]
selectivity index (COX-1): approximately 100 folds | IC50 (COX-1; read-out: IC50 COX-1): 12 µM

Compound: COc1ccc(-c2nc3ccccc3nc2-c2ccc(S(C)(=O)=O)cc2)cc1 [III]
IC50 (COX-2; previous examples of Figure 1): 400 nM | IC50 (COX-1; [3]): > 30 µM

Compound: COc1ccc(-c2ncc(C)nc2-c2ccc(S(N)(=O)=O)cc2)cc1 [IV]
IC50 (COX-2; previous examples of Figure 1): 460 nM | IC50 (COX-1; [3]): 97 µM

Compound: CS(=O)(=O)c1ccc(-c2nc(NCc3ccc(F)cc3)cc(C(F)(F)F)n2)cc1 [IX]
IC50 (COX-2; previous examples of Figure 1): 7 nM | COX-1 activity (COX-1; previous examples of Figure 1): not active

Compound: Cc1cnc2c(-c3ccc(F)cc3)c(-c3ccc(S(C)(=O)=O)cc3)nn2c1C [VIII]
IC50 (COX-2): 600 nM | IC50 (COX-1; read-out: IC50 COX-1): 13 µM

Compound: NS(=O)(=O)c1ccc(-c2nc(Cl)cc(NCc3cccs3)n2)cc1 [VI]
SI (COX-2; COX-2 selectivity, Figure 1): > 81,300 | IC50 (COX-2; previous examples of Figure 1): 1.2 nM

Compound: NS(=O)(=O)c1ccc(-c2nccnc2-c2ccc(F)cc2)cc1 [V]
IC50 (COX-2; previous examples of Figure 1): 1070 nM | IC50 (COX-1; [3]): > 300 µM

Compound: COc1ccc(-n2cc(-c3ccco3)c(C(F)(F)F)n2)cc1 [XI]
IC50 (COX-2; Figure 1): > 50000 nM | IC50 (COX-1; read-out: IC50 COX-1): 3.4 µM

Compound: Nc1onc(-c2ccc(Cl)o2)c1-c1ccccc1 [X]
IC50 (COX-2; Figure 1): > 50000 nM | IC50 (COX-1; read-out: IC50 COX-1): 1.1 µM
